Measurements as given in ChEMBL document CHEMBL4396868, “Discovery of Potent, Selective, and Brain-Penetrant 1 H-Pyrazol-5-yl-1 H-pyrrolo[2,3- b]pyridines as Anaplastic Lymphoma Kinase (ALK) Inhibitors” (J Med Chem, 2019).

Columns and labels:
[1] = biological target: High affinity nerve growth factor receptor (Homo sapiens, UniProt P04629); assay: Inhibition of N-terminal GST-tagged human TrkA kinase domain (436 to 790 residues) expressed in baculovirus expression system using biotin-poly-GT as substrate pre-incubated for 5 mins followed by ATP addition and measured after 60 mins by alpha screen assay
Sequence of High affinity nerve growth factor receptor (P04629 whole entry, the tested form may be a part): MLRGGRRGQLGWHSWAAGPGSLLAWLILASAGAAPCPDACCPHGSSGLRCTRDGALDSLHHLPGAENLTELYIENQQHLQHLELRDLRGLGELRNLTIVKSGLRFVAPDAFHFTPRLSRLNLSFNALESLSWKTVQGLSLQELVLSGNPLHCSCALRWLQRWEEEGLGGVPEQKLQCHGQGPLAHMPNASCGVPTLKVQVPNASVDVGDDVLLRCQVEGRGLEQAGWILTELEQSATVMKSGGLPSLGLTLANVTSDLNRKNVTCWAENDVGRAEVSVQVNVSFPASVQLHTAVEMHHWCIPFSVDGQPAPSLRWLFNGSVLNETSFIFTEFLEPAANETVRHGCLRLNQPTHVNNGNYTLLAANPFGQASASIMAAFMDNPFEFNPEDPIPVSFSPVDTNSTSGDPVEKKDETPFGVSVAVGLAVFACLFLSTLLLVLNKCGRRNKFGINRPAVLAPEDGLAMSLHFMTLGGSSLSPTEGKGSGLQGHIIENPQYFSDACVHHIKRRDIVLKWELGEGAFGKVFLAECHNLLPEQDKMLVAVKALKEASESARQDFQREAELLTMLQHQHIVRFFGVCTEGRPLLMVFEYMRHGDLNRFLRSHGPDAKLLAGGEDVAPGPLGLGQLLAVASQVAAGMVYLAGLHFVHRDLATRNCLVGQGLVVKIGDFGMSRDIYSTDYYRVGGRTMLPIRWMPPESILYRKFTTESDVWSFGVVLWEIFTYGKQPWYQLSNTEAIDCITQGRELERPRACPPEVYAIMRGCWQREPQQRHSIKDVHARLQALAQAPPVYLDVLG

[2] = biological target: T1, ALK tyrosine kinase receptor (Homo sapiens, UniProt Q9UM73)
T1 sequence (Q9UM73 whole entry): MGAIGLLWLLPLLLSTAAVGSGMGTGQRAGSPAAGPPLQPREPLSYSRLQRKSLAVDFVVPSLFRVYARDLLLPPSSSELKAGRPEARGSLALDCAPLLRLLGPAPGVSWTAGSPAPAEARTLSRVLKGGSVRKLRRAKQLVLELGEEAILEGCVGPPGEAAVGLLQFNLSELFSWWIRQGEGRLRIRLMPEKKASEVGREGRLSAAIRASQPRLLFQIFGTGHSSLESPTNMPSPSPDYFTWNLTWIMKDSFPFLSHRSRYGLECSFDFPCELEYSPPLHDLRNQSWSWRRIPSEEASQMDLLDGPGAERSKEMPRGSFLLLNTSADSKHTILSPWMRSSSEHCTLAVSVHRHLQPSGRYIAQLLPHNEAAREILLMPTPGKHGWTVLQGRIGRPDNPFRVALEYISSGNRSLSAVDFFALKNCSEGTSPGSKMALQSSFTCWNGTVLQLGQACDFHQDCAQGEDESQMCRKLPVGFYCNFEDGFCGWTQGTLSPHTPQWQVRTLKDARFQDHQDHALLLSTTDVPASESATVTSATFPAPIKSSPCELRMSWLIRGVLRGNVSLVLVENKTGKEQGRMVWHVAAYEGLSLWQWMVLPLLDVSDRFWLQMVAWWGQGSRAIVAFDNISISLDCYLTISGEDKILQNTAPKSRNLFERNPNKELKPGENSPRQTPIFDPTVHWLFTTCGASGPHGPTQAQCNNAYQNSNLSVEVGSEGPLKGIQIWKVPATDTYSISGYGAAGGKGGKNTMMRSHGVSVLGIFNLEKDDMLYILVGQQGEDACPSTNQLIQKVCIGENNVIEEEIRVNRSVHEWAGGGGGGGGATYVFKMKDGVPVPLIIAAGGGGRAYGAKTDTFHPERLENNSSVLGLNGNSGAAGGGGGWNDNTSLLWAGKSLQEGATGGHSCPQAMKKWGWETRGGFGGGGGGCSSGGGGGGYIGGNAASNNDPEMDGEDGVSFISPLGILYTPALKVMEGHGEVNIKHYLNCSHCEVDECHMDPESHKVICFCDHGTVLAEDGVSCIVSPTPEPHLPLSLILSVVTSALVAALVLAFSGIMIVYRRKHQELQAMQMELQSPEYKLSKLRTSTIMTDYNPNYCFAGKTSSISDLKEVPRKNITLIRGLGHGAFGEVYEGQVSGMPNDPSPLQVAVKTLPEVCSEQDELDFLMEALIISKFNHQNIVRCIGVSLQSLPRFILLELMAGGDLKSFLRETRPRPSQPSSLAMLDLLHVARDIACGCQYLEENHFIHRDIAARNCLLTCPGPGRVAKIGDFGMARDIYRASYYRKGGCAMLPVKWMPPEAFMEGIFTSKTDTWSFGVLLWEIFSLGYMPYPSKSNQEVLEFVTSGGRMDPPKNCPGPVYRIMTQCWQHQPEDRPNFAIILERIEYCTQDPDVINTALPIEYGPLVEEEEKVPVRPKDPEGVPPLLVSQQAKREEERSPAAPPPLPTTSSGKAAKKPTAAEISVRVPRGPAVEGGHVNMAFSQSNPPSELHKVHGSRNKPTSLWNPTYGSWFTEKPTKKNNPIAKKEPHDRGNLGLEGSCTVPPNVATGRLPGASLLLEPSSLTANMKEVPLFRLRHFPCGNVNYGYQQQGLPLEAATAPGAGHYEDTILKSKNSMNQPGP
Description: Inhibition of human ALK kinase domain (1058 to 1620 residues) expressed in baculovirus expression system using biotin-poly-GT as substrate pre-incubated for 10 mins followed by ATP addition and measured after 60 mins by HTRF method

[3] = biological target: T1, ALK tyrosine kinase receptor; type: cell-based, HEK293
Description: Inhibition of recombinant human ALK expressed in HEK293 cells assessed as reduction in ALK autophosphorylation at Tyr1604 residue incubated for 60 mins by sandwich ELISA

MDR1 (ABCB1, P-gp) = MDR1 (ABCB1, P-gp) (Homo sapiens, UniProt P08183); assay: Substrate activity at human MDR1 expressed in pig LLC-PK1 cells assessed as efflux ratio of apparent permeability across basolateral to apical over apical to basolateral side at 10 uM after 2 hrs by LC/MS/MS analysis; type: ADME, cell-based
Sequence of MDR1 (ABCB1, P-gp) (P08183 whole entry, the tested form may be a part): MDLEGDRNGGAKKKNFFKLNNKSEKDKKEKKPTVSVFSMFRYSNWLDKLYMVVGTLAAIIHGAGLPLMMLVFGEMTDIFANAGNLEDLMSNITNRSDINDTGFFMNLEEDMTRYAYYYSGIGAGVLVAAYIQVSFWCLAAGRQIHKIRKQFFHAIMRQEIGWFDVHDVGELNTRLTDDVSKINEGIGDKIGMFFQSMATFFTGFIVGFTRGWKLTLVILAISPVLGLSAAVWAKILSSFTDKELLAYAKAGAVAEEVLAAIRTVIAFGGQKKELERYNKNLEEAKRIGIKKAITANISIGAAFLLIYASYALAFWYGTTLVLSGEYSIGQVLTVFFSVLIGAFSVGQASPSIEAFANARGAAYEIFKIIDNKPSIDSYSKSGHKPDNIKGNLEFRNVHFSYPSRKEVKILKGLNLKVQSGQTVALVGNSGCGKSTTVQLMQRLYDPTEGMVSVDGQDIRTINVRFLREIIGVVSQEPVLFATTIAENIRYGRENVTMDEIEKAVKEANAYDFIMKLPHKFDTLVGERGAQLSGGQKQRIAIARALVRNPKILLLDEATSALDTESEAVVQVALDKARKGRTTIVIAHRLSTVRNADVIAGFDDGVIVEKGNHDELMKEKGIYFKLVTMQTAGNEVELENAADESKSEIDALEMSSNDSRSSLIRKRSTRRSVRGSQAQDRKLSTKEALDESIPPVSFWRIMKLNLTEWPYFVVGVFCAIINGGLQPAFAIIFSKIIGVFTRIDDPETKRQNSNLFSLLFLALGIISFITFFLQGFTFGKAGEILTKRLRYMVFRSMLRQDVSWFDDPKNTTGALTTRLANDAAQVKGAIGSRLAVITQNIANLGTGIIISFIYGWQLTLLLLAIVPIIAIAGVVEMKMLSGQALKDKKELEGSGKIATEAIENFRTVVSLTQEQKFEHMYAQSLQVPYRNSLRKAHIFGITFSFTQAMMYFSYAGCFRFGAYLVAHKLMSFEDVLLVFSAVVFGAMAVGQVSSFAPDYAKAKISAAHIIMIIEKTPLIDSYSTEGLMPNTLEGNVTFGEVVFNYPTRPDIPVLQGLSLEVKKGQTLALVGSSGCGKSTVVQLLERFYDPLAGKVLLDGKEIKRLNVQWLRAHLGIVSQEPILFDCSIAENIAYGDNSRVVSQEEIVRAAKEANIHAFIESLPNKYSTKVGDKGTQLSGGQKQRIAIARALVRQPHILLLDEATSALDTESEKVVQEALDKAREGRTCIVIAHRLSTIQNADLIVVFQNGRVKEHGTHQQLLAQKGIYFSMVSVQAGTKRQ

Homo sapiens = species: Homo sapiens; assay: Selectivity ratio of IC50 for N-terminal GST-tagged human TrkA kinase domain (436 to 790 residues) expressed in baculovirus expression system to IC50 for human ALK kinase domain (1058 to 1620 residues) expressed in baculovirus expression system

SMILES | IC50 [1] [nM] | IC50 [2] [nM] | IC50 [3] [nM] | efflux ratio at 2 h, 10 µM (MDR1 (ABCB1, P-gp)) | Ratio IC50 (Homo sapiens)
Cc1cc(-c2cnc3ccc(N[C@H](C)c4ccc(F)cc4F)nn23)[nH]n1 |  | 1000 |  |  | 
Cc1cc(-n2cc(C(=O)N3CCOCC3)c3ccc(OC(C)c4ccc(F)cn4)nc32)[nH]n1 (racemic) | 1400 | 6.2 | 69 | 3.1 | 
Cc1cc(-n2cc(S(=O)(=O)C(C)C)c3ccc(N[C@@H](C)c4ccc(F)cn4)nc32)n[nH]1 | 1700 | 18 | 270 |  | 94
Cc1cc(-n2ccc3ccc(N[C@@H](C)c4ccc(F)cc4F)nc32)[nH]n1 | < 10 | 14 | 140 |  | 
COCc1cn(-c2cc(C)n[nH]2)c2nc(OC(C)c3ccc(F)cn3)ccc12 (racemic; 16) | 1500 | 2800 |  |  | 
CCS(=O)(=O)c1cn(-c2cc(C)[nH]n2)c2nc(N[C@@H](C)c3ccc(F)cn3)ccc12 | 110 | 9.6 | 37 |  | 
Cc1cc(-n2cc(S(=O)(=O)C3COC3)c3ccc(N[C@@H](C)c4ccc(F)cn4)nc32)n[nH]1 | 730 | 20 | 60 |  | 
Cc1cc(-n2cc(C(=O)N3CCOCC3)c3ccc(N[C@@H](C)c4ccc(F)cn4)nc32)[nH]n1 | 1200 | 2.5 | 23 | 18 | 480

Continued, values first:

IC50 [1] [nM] | IC50 [2] [nM] | IC50 [3] [nM] | efflux ratio at 2 h, 10 µM (MDR1 (ABCB1, P-gp)) | Ratio IC50 (Homo sapiens) | SMILES
250 | 6.1 | 37 |  |  | Cc1cc(-n2cc(C(=O)N3CCN(C)CC3)c3ccc(N[C@@H](C)c4ccc(F)cn4)nc32)[nH]n1
2.7 | 1.9 | 9.4 |  |  | Cc1cc(-n2cc(C3=CCOCC3)c3ccc(N[C@@H](C)c4ccc(F)cn4)nc32)[nH]n1
0.1 | 2 | 6 |  |  | Cc1cc(-c2cnc3ccc(N[C@@H](C)c4ccc(F)cc4F)nn23)[nH]n1
3400 | 4.6 | 42 | 1.3 |  | Cc1cc(-n2cc(C(=O)N3CCO[C@H](C)C3)c3ccc(O[C@H](C)c4ccc(F)cn4)nc32)[nH]n1 (relative stereo)
< 10 | 3.2 |  |  |  | COCc1cn(-c2cc(C)n[nH]2)c2nc(OC(C)c3ccc(F)cn3)ccc12 (racemic; 15)
120 | 1.8 | 16 |  | 67 | Cc1cc(-n2cc(C(=O)N(C)C)c3ccc(N[C@@H](C)c4ccc(F)cn4)nc32)[nH]n1
15 | 1.2 | 27 |  |  | Cc1cc(-n2cc(S(C)(=O)=O)c3ccc(N[C@@H](C)c4ccc(F)cc4F)nc32)n[nH]1
45 | 3.3 | 13 |  |  | Cc1cc(-n2cc(S(C)(=O)=O)c3ccc(N[C@@H](C)c4ccc(F)cn4)nc32)n[nH]1
